The assay has as its target T1, GSK3B (GSK3 beta) (Homo sapiens, UniProt P49841).
T1 construct: purchased Thermo Fisher Scientific (Life Technologies) SelectScreen
Description: SelectScreen Z'LYTE. It is filed as biochemical. Put shortly: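 SelectScreen broad panel; activity (Z'LYTE, Adapta) plus binding formats. ATP: Km app for CSF1R Z'LYTE; 10 for CAMK1 Adapta. Readout = % per kinase.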

T1 sequence (P49841 whole entry): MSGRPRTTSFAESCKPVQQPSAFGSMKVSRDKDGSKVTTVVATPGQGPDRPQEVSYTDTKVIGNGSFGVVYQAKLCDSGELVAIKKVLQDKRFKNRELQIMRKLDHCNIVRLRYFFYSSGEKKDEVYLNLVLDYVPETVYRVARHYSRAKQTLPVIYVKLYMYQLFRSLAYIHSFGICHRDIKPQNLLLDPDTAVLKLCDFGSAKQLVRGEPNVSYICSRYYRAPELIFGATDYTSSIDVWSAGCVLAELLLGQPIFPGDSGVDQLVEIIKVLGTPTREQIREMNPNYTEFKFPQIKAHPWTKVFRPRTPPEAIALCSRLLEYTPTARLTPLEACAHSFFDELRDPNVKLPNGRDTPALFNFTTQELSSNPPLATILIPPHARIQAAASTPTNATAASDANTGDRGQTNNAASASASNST

Consider `CN(C(=O)CN1CCOCC1)c1ccc2sc3c(-c4cccc5c(=O)cc(N6CC7CCC(C6)O7)oc45)cccc3c2c1` [NU5455], for which the inhibition at 1 µM is -2.5%.
